The subject of one assay is Cryptococcus neoformans. Description: Antifungal activity against Cryptococcus neoformans H99 assessed as fungal growth inhibition incubated for 2 days by broth serial dilution method. The class given is functional. To be noted: H99, 48 h, time 2 day.
The next assay deals with Candida albicans. Description: Antifungal activity against Candida albicans SC5314 assessed as fungal growth inhibition incubated for 2 days by broth serial dilution method. The note with it: for Activity: time 2.0 day. The assay is classed as functional.

≈ marks a conversion by molar mass, not a printed value. Calls of active or inactive are those of the source. Where only a bound is given, the exact number is not on record here.

Take `OC(Cn1cncn1)(Cn1cncn1)c1ccc(F)cc1F` [FLUCONAZOLE]: in the assay on Cryptococcus neoformans, the MIC (as a rule, the smallest concentration in the dilution series that meets the test's criterion for growth inhibition) worked out at 4 µg/mL (≈ 13.1 µM).
For `CC(C)C[C@@H]1NC(=O)CNC1=O`, in the assay on Candida albicans, the outcome was inactive. Also, in the assay on Cryptococcus neoformans, the MIC worked out at 25 µg/mL (≈ 147 µM).
In the same order, the values of `O=C1CNC(=O)[C@H](Cc2ccccc2)N1` are “inactive” and 50 µg/mL (≈ 245 µM).
In the same order, the values of `C[C@H](O)/C=C/[C@@H]1OC(=O)C[C@H]1Nc1ccc(C(=O)O)cc1` are “inactive” and 100 µg/mL (≈ 343 µM).
In the same order, the values of `CC(=O)Nc1ccccc1O` are “inactive” and 50 µg/mL (≈ 331 µM).
Turning to `C[C@]1(O)CC(=O)c2c(cc3cccc(O)c3c2O)C1`, the result in the assay on Candida albicans was inactive. Also, the MIC with Cryptococcus neoformans turned out to be 50 µg/mL (≈ 194 µM).
In the same order, the values of `O=C1[C@H](Cc2ccccc2)NC(=O)[C@]2(O)CCCN12` are “inactive” and 50 µg/mL (≈ 192 µM).
Consider `CC(C)C[C@@H]1NC(=O)[C@@H]2CCCN2C1=O`, for which the outcome with Candida albicans was inactive. For the same compound, in the assay on Cryptococcus neoformans, the minimal inhibitory concentration (MIC) is 50 µg/mL (≈ 238 µM).
As for `CC(C)[C@@H]1NC(=O)[C@@H]2CCCN2C1=O`, the result in the assay with Candida albicans was inactive. Moreover, the MIC in the assay with Cryptococcus neoformans was 100 µg/mL (≈ 510 µM).
In the same order, the values of `Cc1c(C(=O)O)c(O)cc2c1C(=O)c1c(O)cccc1C2=O` are “inactive” and 100 µg/mL (≈ 335 µM).
As for `CC(=O)NCCc1c[nH]c2ccccc12` [NB-ACETYLTRYPTAMINE], the outcome in the assay with Candida albicans was inactive. In addition, the MIC in the assay with Cryptococcus neoformans turned out to be 200 µg/mL (≈ 989 µM).
Regarding `Cc1cc(O)cc2cc3c(c(O)c12)C(=O)CC[C@@H]3O`, the result with Candida albicans was inactive. Also, the MIC in the assay on Cryptococcus neoformans was 50 µg/mL (≈ 194 µM).
In the same order, the values of `CC(C)C[C@@H]1NC(=O)[C@@H]2C[C@@H](O)CN2C1=O` are “inactive” and 25 µg/mL (≈ 110 µM).
In the same order, the values of `O=C1N[C@@H](Cc2ccccc2)C(=O)N2C[C@H](O)C[C@@H]12` are “inactive” and 50 µg/mL (≈ 192 µM).
For the compound `C/C=C/[C@H](O)[C@@H]1OC(=O)C[C@H]1Nc1ccc(C(=O)O)cc1`, the outcome in the assay on Candida albicans was inactive. In the assay with Cryptococcus neoformans, the MIC was found to be 25 µg/mL (≈ 85.8 µM).
In the same order, the values of `Cc1c(C(=O)O)c(O)cc2c1C(=O)c1c(O)cc(O)cc1C2=O` are “inactive” and 100 µg/mL (≈ 318 µM).
In the same order, the values of `O=c1[nH]c2ccccc2o1` [BENZOXAZOLINONE] are “inactive” and 25 µg/mL (≈ 185 µM).
For `O=C(O)c1c[nH]c2ccccc12`, in the assay with Candida albicans, the result was inactive. The MIC with Cryptococcus neoformans was determined as 12 µg/mL (≈ 74.5 µM).
As for `CC(C)C[C@@H]1NC(=O)[C@H](C(C)C)NC1=O`, the outcome in the assay with Candida albicans was inactive. For the same compound, the MIC in the assay with Cryptococcus neoformans came out at 50 µg/mL (≈ 236 µM).
Regarding `C[C@@H]1NC(=O)[C@H](Cc2ccccc2)NC1=O`, in the assay with Candida albicans, the result was inactive. For the same compound, the MIC with Cryptococcus neoformans is 100 µg/mL (≈ 458 µM).
As to `CC(=O)CC[C@@H]1OC(=O)C[C@H]1Nc1ccc(C(=O)O)cc1`, the MIC in the assay on Candida albicans (SC5314, 48 h, time 2 day) is > 100 µg/mL; in the assay with Cryptococcus neoformans it was 50 µg/mL (≈ 172 µM).
